Data as given in ChEMBL document CHEMBL1201862, “PubChem BioAssay data set” (2004).
Activity calls are given as the source filed them.

How the values were obtained:
[1] = target: FAD-linked sulfhydryl oxidase ALR (Homo sapiens, UniProt P55789); test: inhibitors of human ALR sulfhydryl oxidase, dose response, biochemical, H2O2 detection, luminescence, cherry-pick (AID 493248)
[2] = ZM109 Env clade C HIV-1 fusion inhibitors, dose response, HeLa effector, CEM target cells, luciferase, cherry-pick (AID 652058); format: functional, cell-based
[3] = microbe, parasite or virus in culture; format: functional; details: Mycobacterium tuberculosis
[4] = inhibitors of clade B AD8 Env fusion, dose response, cell-based, cherry-pick (AID 652062); format: functional;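 note: luciferase signal from cell-cell fusion driven by HIV-1 clade B AD8 Env; potency is for inhibitors of fusion seen as a drop in luminescence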
[5] = off-target signal loss in HeLa-CEM21 co-culture – HeLa F-luc CTL cells, cherry-picked, counter-screen for HIV-1 Env fusion inhibitor project, dose response (AID 652040); format: functional, cell-based;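 note: potency for signal decrease marking cytotoxic or nonspecific inhibition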
[6] = inhibitors of HIV Env-driven cell fusion, dose response, cherry-pick (AID 652057); format: functional, cell-based
INS1 = test: beta cell apoptosis inhibitors, cytokine rescue, dose response, luminescence, retest (AID 449756); format: functional, cell-based; details: Rattus norvegicus;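 note: cell death triggered by IL-1 beta plus TNF-alpha plus IFN-gamma mixture; protective hits raise ATP signal compared with cytokine alone wells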
[7] = CEM21 lymphoblast cell cytotoxicity, dose response, cytotoxicity control for viral fusion inhibitor project, CellTiter-Glo luminescence, cherry-picked (AID 652042); format: functional, cell-based;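 note: potency for signal decrease meaning cytotoxicity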
Cytochrome P450 2C9 = Cytochrome P450 2C9 (Homo sapiens, UniProt P11712)
Cytochrome P450 2C9, sequence (P11712 whole entry): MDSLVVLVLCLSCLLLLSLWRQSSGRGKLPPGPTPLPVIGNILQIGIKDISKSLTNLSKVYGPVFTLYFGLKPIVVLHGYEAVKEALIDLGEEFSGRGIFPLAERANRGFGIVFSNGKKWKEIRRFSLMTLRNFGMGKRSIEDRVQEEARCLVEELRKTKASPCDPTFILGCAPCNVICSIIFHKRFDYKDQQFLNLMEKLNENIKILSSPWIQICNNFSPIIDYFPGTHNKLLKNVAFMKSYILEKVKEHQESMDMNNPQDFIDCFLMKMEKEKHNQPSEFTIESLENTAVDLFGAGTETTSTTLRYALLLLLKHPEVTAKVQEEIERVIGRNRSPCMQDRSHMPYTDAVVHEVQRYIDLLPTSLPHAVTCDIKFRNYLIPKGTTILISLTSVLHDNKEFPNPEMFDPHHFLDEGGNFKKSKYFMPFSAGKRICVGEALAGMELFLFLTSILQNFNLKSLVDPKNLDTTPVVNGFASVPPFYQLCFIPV

Cytochrome P450 3A4 = Cytochrome P450 3A4 (Homo sapiens, UniProt P08684);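 note: CYP3A4 tested as one member of a cytochrome P450 panel screen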
Cytochrome P450 3A4, sequence (P08684 whole entry): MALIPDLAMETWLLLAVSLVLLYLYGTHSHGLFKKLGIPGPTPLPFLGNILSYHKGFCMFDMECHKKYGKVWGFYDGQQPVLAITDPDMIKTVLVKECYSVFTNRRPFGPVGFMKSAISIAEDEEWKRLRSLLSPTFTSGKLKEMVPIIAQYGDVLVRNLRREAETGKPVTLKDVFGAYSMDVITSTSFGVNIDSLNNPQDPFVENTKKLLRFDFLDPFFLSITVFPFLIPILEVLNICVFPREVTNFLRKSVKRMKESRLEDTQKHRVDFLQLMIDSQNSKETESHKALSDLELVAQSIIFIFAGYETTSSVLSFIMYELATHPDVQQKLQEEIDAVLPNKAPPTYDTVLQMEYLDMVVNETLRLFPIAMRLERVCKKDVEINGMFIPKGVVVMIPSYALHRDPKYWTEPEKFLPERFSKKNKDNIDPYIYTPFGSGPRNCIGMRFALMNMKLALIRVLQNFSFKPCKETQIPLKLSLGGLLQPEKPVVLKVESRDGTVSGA

[8] = target: T1, Replicative DNA helicase DnaB (Mycobacterium tuberculosis, UniProt P9WMR3); test: DnaB intein splicing inhibitors, dose response, biochemical, cell-free fluorescence (AID 449749); format: functional
T1 sequence (P9WMR3 whole entry): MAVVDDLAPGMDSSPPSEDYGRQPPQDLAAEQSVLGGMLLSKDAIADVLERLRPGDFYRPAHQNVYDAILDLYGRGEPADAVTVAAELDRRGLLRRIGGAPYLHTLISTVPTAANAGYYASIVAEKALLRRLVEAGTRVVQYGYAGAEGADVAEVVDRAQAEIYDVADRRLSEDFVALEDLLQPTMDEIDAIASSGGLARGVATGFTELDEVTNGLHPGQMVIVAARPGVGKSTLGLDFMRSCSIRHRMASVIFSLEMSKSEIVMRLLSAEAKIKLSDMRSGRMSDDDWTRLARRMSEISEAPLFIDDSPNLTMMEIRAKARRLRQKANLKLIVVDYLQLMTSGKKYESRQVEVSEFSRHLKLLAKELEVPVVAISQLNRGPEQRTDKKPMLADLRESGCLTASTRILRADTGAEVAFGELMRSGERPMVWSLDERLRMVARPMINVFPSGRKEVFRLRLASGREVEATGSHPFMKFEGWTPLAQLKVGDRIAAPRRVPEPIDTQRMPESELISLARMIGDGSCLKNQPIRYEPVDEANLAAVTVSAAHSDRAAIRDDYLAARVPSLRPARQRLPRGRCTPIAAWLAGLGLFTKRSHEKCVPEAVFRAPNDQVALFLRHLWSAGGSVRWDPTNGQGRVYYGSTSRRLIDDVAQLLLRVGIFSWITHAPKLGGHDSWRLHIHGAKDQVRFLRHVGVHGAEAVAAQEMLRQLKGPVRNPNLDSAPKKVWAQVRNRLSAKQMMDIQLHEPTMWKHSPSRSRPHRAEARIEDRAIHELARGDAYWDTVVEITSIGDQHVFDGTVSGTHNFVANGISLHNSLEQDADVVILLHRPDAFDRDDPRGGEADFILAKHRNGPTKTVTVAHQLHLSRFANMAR

Protein RecA = target: T2, Protein RecA (Mycobacterium tuberculosis, UniProt P9WHJ3); test: Fluorescence Cell-Free Homogeneous Dose Retest to Identify Inhibitors of RecA-Intein Splicing Activity. [Related pubchem assays (depositor defined):AID2097, AID2223, AID489010, AID492950]; format: functional
T2 sequence (P9WHJ3 whole entry): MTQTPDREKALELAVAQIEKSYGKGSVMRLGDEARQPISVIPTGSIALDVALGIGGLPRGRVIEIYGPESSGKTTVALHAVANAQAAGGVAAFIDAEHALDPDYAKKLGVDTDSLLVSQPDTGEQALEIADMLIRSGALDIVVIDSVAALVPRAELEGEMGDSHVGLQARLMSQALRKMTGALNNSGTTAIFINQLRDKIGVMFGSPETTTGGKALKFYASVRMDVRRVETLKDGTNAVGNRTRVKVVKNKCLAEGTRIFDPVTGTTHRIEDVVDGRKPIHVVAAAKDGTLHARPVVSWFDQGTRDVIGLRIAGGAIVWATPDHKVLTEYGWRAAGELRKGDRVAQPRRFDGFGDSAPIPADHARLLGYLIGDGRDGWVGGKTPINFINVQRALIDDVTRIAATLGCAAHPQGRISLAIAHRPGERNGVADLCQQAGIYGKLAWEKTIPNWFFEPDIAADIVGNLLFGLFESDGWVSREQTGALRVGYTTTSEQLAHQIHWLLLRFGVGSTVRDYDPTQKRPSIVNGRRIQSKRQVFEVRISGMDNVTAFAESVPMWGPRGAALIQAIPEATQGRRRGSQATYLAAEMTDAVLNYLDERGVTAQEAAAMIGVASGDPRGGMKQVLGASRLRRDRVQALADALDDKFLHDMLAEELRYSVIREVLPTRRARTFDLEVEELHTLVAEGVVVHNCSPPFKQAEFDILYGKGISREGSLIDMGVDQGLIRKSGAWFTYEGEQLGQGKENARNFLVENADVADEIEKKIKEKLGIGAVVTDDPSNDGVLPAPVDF

Cytochrome P450 1A2 = target: T3, Cytochrome P450 1A2 (Homo sapiens, UniProt P05177);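 note: PubChem cytochrome P450 panel assay, CYP1A2 panel member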
T3 sequence (P05177 whole entry): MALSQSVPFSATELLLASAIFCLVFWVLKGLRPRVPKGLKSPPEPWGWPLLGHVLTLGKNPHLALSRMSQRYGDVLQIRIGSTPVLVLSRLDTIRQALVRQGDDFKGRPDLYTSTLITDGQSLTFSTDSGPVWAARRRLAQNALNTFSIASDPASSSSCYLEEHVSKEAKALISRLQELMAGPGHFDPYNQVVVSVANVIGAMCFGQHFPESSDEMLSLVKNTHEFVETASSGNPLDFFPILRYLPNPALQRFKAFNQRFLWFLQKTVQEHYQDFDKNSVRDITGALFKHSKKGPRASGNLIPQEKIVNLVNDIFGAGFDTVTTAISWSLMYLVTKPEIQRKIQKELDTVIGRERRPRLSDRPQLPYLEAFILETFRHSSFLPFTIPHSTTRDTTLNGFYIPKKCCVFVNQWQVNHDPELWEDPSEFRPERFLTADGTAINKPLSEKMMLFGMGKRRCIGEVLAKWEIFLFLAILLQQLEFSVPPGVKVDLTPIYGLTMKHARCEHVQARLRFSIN

[9] = target: T4, Heat shock factor protein 1 (Mus musculus, UniProt P38532); test: HSF1 potentiators in luciferase reporter cells, confirmation, cell-based, NIH3T3, luminescence, dose retest (AID 435004); format: functional;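 note: stress induced by proteasome inhibitor MG132 added 30 min after compound; luciferase reporter driven by HSF1 response element in NIH3T3 cells; actives raise luminescence as potentiators of the MG132 stress response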
T4 sequence (P38532 whole entry): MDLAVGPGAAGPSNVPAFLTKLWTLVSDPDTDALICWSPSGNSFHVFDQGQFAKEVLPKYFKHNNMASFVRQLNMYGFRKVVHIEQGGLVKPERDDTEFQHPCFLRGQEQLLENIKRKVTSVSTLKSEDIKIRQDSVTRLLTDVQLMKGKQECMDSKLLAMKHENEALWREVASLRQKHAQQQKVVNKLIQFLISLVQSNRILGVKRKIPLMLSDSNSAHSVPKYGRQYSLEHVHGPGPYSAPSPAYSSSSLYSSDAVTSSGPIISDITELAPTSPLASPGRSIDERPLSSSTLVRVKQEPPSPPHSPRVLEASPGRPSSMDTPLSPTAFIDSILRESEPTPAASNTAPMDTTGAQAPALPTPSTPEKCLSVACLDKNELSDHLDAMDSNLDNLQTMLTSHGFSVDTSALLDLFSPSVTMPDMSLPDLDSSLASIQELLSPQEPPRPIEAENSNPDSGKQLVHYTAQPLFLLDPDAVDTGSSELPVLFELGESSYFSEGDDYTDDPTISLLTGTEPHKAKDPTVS

Cytochrome P450 2C19 = Cytochrome P450 2C19 (Homo sapiens, UniProt P33261); test: Cytochrome panel assay with activity outcomes. Panel member name: p450-cyp2c19 Compounds with AC50 equal or less than 10 uM are considered active; format: functional
Cytochrome P450 2C19, sequence (P33261 whole entry): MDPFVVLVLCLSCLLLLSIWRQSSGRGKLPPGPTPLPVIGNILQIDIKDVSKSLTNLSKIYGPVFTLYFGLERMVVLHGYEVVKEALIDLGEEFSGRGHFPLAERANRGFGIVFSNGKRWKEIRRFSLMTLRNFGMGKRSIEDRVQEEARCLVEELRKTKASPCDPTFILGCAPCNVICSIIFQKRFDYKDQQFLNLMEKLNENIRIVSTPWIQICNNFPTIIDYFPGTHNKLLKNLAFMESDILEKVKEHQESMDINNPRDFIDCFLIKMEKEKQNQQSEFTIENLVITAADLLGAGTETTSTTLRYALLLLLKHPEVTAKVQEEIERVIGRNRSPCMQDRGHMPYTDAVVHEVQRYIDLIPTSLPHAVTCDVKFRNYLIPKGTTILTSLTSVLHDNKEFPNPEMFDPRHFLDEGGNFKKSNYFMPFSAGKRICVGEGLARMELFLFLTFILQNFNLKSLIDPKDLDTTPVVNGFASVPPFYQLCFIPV

Cytochrome P450 2D6 = Cytochrome P450 2D6 (Homo sapiens, UniProt P10635);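 note: CYP2D6 member of a cytochrome P450 panel assay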
Cytochrome P450 2D6, sequence (P10635 whole entry): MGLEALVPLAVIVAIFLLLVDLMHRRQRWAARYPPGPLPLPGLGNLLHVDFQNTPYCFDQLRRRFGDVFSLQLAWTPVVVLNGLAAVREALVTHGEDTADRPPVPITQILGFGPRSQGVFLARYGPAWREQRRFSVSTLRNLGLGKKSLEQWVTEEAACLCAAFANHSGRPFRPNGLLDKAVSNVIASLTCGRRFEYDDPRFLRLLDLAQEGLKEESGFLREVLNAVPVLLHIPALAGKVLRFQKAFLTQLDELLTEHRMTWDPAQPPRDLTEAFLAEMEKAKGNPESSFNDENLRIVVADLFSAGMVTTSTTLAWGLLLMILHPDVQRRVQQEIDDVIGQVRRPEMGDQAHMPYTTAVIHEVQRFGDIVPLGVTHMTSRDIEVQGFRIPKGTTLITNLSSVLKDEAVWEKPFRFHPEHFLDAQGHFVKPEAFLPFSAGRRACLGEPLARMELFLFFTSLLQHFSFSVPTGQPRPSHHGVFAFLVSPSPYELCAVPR

FAD-linked sulfhydryl oxidase ALR, sequence (P55789 whole entry, the tested form may be a part): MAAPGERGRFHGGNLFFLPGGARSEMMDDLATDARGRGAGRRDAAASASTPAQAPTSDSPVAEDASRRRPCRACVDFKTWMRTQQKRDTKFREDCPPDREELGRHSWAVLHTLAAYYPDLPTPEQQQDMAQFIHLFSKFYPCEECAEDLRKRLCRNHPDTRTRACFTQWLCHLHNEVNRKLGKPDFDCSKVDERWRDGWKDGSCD

SMILES: COc1ccccc1N1CCN(S(=O)(=O)c2cccc(F)c2)CC1
- AC50 [1]: 28.8 µM (active)

SMILES: Cc1cccc(CNc2ncnc3ccc(-c4ccc5c(c4)OCCO5)cc23)c1
- AC50 [2]: 5.84 µM (active)
- CC50 [3]: > 40 µM (active)
- AC50 [4]: 8.48 µM (active)
- AC50 [5]: > 70 µM (inactive)
- AC50 [6]: 27.9 µM (active)
- AC50 (INS1): 7.74 µM (active)
- AC50 [7]: 5.98 µM (active)

SMILES: COc1ccccc1NC(=O)c1nn(-c2cccc(C(F)(F)F)c2)ccc1=O
- AC50 (Cytochrome P450 2C9): inconclusive

SMILES: CCc1ccc(CN2CCN(C(=O)c3cccc(OC)c3OC)CC2)cc1
- AC50 [2]: 2.01 µM (active)
- AC50 [4]: 11.8 µM (active)
- AC50 [5]: 26.2 µM (active)
- AC50 [6]: 1.66 µM (active)
- AC50 [7]: 67.5 µM (active)

SMILES: Cc1ccc(NC(S)=NCCN2CCOCC2)cc1C
- AC50 (Cytochrome P450 3A4): 15.8 µM (inconclusive)
- AC50 (Cytochrome P450 2C9): inconclusive

SMILES: CSc1nc(O)c(Nc2cccc(Cl)c2)c(O)n1
- AC50 [1]: 1.14 µM (active)
- AC50 [8]: 64.9 µM (active)
- EC50 (Protein RecA): 1.92 µM (active)

SMILES: Cc1nc(C(=O)N2CCCC(Nc3ccc(C)c(C)c3)C2)cs1 (centres undefined)
- AC50 [1]: 0.479 µM (active)

SMILES: CC(C)Cn1c(SCC(=O)c2c(N)n(C)c(=O)n(C)c2=O)nc2ccccc21
- AC50 (Cytochrome P450 2C9): inconclusive
- AC50 (Cytochrome P450 1A2): 25.1 µM (inconclusive)

SMILES: Cc1ccc(S(=O)(=O)c2c(N)n(CCC(C)C)c3nc4ccccc4nc23)cc1
- AC50 [2]: 24.9 µM (active)
- AC50 [8]: > 380 µM (inactive)
- AC50 [4]: 35.4 µM (active)
- EC50 (Protein RecA): 3.98 µM (active)
- AC50 [5]: 18.6 µM (active)
- EC50 [9]: > 260 µM (inactive)
- AC50 [6]: 9.53 µM (active)
- AC50 [7]: 22.7 µM (active)

SMILES: Cl.OC1(c2ccc(F)cc2)CCNC1 (centres undefined)
- AC50 (Cytochrome P450 2C9): inconclusive
- AC50 (Cytochrome P450 2C19): inconclusive

SMILES: O=C(Cc1ccccc1)N/N=C/C=C/c1cccc([N+](=O)[O-])c1
- AC50 (Cytochrome P450 2C9): inconclusive
- AC50 (Cytochrome P450 2C19): inconclusive
- AC50 (Cytochrome P450 1A2): 15.8 µM (inconclusive)

SMILES: COc1ccccc1-c1cc(C(=O)Nc2cc(C)n(Cc3ccc(Cl)cc3)n2)no1
- AC50 (Cytochrome P450 2C9): inconclusive
- AC50 (Cytochrome P450 2D6): 0.891 µM (inconclusive)
- AC50 (Cytochrome P450 1A2): 0.794 µM (inconclusive)

SMILES: CC(=O)Nc1ccc2c(c1)nc1n2CCSC1
- AC50 [1]: 0.34 µM (active)
